Laboratory results as given in patent publication US20230107216A1, “PANTETHEINE DERIVATIVES AND USES THEREOF” (Comet Therapeutics, Inc., priority 2018, published 2023).
Like-named read-outs stand apart in the source and are kept apart here.

Key:
[1] = test system: HepG2 cells; assay: Glucose uptake (Glucose Uptake-Glo); type: cell-based; conditions: Homo sapiens, read-out: % increase in Glucose Uptake
[2] = test system: Very long-chain acyl-CoA dehydrogenase (VLCAD) primary fibroblasts GM17475; assay: Total NAD+ + NADH and NAD+ (NAD/NADH-Glo), VLCAD fibroblasts GM17475; type: cell-based; conditions: Homo sapiens, Fibroblast, VLCAD GM17475 P10, assay condition A, 24h, read-out: Increase in Total NAD+ + NADH
Experimental: Primary adherent fibroblasts were cultured in minimum essential medium (MEM) (Gibco, 25030081) supplemented with 2 mM L-Glutamine (Gibco, 25030081), 15% fetal bovine serum (FBS) (Gibco, 26400044) and 1% penicillin/streptomycin (Gibco, 5140122) at 37° C. and 5% CO2. Cells were collected for either passaging or experiment at ˜70-80% confluence. Cells were obtained by trypsinization and seeded in cell culture microplates either white plate (Thermo Fisher Scientific, 152028) for luminescent measurement or black plate (Thermo Fisher Scientific, 165305) for fluorescent based read out for different assays listed below. Cells were obtained by trypsinization and […] were seeded and allowed to adhere for 16-18 hours to have confluency around 70-80% in the cell well with culture media. After 24 hours prior to measurements (37° C., 5% CO2) media was changed to Dulbecco's Modified Eagle Medium (DMEM, Agilent Seahorse cat #103575-100) with the appropriate supplements as stated below.
Primary fibroblasts assayed were Propionic Acidemia (PA) (GM03590 Coriell Institute for Medical Research, Tsi 6337 Trans-Hit Bio), Methylmalonic Acidemia (MMA) (Tsi 5224 Trans-Hit Bio), Subnormal activation of pyruvate dehydrogenase complex (PDH) (GM01503 Coriell Institute for Medical Research), Very long-chain acyl-CoA dehydrogenase (VLCAD) (GM17475), Leigh Syndrome (LS) (GM03672, GM13411 Coriell Institute for Medical Research), Pyruvate Carboxylase Deficiency (PC) (GM00444 Coriell Institute for Medical Research). 10 μM of Compounds were added for 2 hours in PA, MMA lines and for 24h for the other fibroblast lines.
Assay was performed according to manufacturer instructions (NAD/NADH-Glo Assay Promega, G9072). The NAD/NADH-Glo Assay is a bioluminescent assay for detecting total oxidized and reduced nicotinamide adenine dinucleotides (NAD+ and NADH, respectively) from which ratio of NAD/NADH can be calculated. Briefly, for every assay a 12-point standard curve was prepared ranging from 400 nM to 0.625 nM. Media was removed and replaced with 50 μl of PBS for both assays.
For individual NAD+ and NADH measurement, 50 μl of 1% DTAB (Sigma Cat #D5047) (cell lysis reagent) in 0.2N NaOH was added to the plate and a total 100 μl of lysate was split into two plates with 50 μl each. 25 μl of 0.4N HCl were added to the NAD+ plate and both NAD+ and NADH plate were heated at 60° C. for 15 minutes. The acid and heat treatment destroyed NADH allowing individual NAD+ measurement while heating in basic conditions destroys NAD+ allowed individual NADH measurements. The plates were allowed to come to room temperature for 10 minutes and Trizma base (Sigma, T1699) was added to the NAD+ plate to neutralize the acid and HCl Trizma hydrochloride (Sigma, T2694) was added to the NADH plate. The NADNADH glo reagent was prepared by adding: 625 μl of NAD cycling substrate, 125 μl of reductase, 125 μl of reductase substrate, 125 μl NAD cycling enzyme to total of the 25 ml of NAD GLO reagent. 1:1 ratio of total volume of reagent was added to the individual NAD+, NADH measurement (total 100 μl) and 50 μl for total NAD/NAH measurement. Luminescence was read between 30-60 minutes within the linear range.
A total dead cell count was performed as described in Example 817 and only alive cells were used for analysis.

[3] = test system: monocyte-derived M1 macrophages; assay: M1 differentiation assay (macrophage TNFα, IL6, IL10 ELISA, FACS); type: cell-based, human; conditions: for activation at 10 µM: read-out: % Increase in IL-10 Secretion
Summary of the method: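 CD14+ human blood monocytes (100,000) differentiated 6 days with 10 ng/ml GM-CSF plus compound at 10 or 50 μM, refreshed days 2 and 4. Matured 24 h with GM-CSF, IFNγ, LPS plus compound. Supernatant TNFα, IL6, IL10 by ELISA; FACS M1 phenotype CD86+CD68+CD163−.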

[4] = test system: Venular Endothelial cells (HUVEC) (4H system); assay: BioMAP 4H system (IL-4 and histamine); type: cell-based, human; conditions: procedure of Example 826; for inhibition at 10 µM: Homo sapiens, HUVEC, 24 h
[5] = Homo sapiens, Macrophage, 10 uM
[6] = Homo sapiens, Macrophage, 10 uM, read-out: % decrease in Macrophage IL-6 Secretion
[7] = Homo sapiens, Macrophage, 10 uM, read-out: % decrease in Macrophage TNFα Secretion

CC(C)(CO)[C@@H](O)C(=O)NCCC(=O)NCCSC(=O)CC(=O)CCC(=O)O [Compound 2, 6-[(2-[3-[(2R)-2,4-dihydroxy-3,3-dimethylbutanamido]propanamido]ethyl)sulfanyl]-4,6-dioxohexanoic acid]
activation at 10 µM [1]: ≥ 10%
activation at 10 µM [2]: ≥ 10%

C[C@@H](O)CC(=O)SCCNC(=O)CCNC(=O)[C@H](O)C(C)(C)CO [Compound 38, S-2-{3-[(R)-2,4-dihydroxy-3,3-dimethylbutyrylamino]propionylamino} ethyl (R)-3-hydroxybutanethioate]
% Increase in Live Macrophage Cells ([3]; 50 uM): ≥20%
activation at 10 µM [3, 5]: ≥ 30%
inhibition at 10 µM [3, 6]: ≥ 30%
inhibition at 10 µM [3, 7]: ≥ 30%
activation at 10 µM [2]: ≥ 10%

C[C@@H](O)CC(=O)CC(=O)SCCNC(=O)CCNC(=O)[C@H](O)C(C)(C)CO [Compound 42, (2R)-2,4-dihydroxy-N-[2-[(2-[[(5R)-5-hydroxy-3-oxohexanoyl]sulfanyl]ethyl)carbamoyl]ethyl]-3,3-dimethylbutanamide]
% decrease in Eotaxin-3 ([4]; 1 uM): ≥10%
% increase in MCP-1 ([4]; 10 uM): ≥10%
% increase in VEGRII ([4]; 10 uM): ≥10%
inhibition at 10 µM ([4]; 10 uM, read-out: % decrease in E-Selectin): ≥ 10%
activation at 10 µM [2]: ≥ 10%

CC(=O)OCC(C)(C)[C@@H](O)C(=O)NCCC(=O)NCCSC(=O)CC(=O)CCC(=O)O [Compound 140, 6-[(2-[3-[(2R)-4-(acetyloxy)-2-hydroxy-3,3-dimethylbutanamido]propanamido]ethyl)sulfanyl]-4,6-dioxohexanoic acid]
activation at 10 µM [2]: ≥ 10%

CCC(=O)CC(=O)SCCNC(=O)CCNC(=O)[C@H](O)C(C)(C)CO [Compound 382, (2R)-2,4-dihydroxy-3,3-dimethyl-N-[2-([2-[(3-oxopentanoyl)sulfanyl]ethyl]carbamoyl)ethyl]butanamide]
activation at 50 µM [1]: ≥ 30%
activation at 10 µM [2]: ≥ 10%

CC(O)CC(O)CC(=O)SCCNC(=O)CCNC(=O)[C@H](O)C(C)(C)CO (stereo partly shown) [Compound 400]
activation at 10 µM [3, 5]: ≥ 30%
inhibition at 50 µM ([3]; Homo sapiens, Macrophage, 50 uM, read-out: % decrease in Macrophage TNFα Secretion): ≥ 30%
activation at 10 µM [2]: ≥ 10%

CC(O)CC(O)CC(O)CC(=O)SCCNC(=O)CCNC(=O)[C@H](O)C(C)(C)CO (stereo partly shown) [Compound 401]
% decrease in Live Macrophage Cells ([3]; 50 uM): ≥20%
inhibition at 10 µM [3, 7]: ≥ 30%
activation at 10 µM [2]: ≥ 10%

COC(=O)CC(C(C)=O)C(=O)SCCNC(=O)CCNC(=O)[C@H](O)C(C)(C)CO (stereo partly shown) [Compound 410]
activation at 50 µM [1]: ≥ 30%
activation at 10 µM [2]: ≥ 10%

CC(=O)SCCNC(=O)CCNC(=O)[C@H](O)C(C)(C)COC(=O)CCC(=O)O [Compound 1242, (R)-12-hydroxy-13,13-dimethyl-2,7,11,16-tetraoxo-15-oxa-3-thia-6,10-diazanonadecan-19-oic acid]
% decrease in Live Macrophage Cells ([3]; 10 uM): ≥20%
activation at 10 µM [3, 5]: ≥ 30%
inhibition at 10 µM [3, 6]: ≥ 30%
inhibition at 10 µM [3, 7]: ≥ 30%
activation at 10 µM [2]: ≥ 10%

CC[C@@H](O)CC(=O)SCCNC(=O)CCNC(=O)[C@H](O)C(C)(C)CO [Compound 1245, (2R)-2,4-dihydroxy-N-{2-[(2-{[(3R)-3-hydroxypentanoyl]sulfanyl}ethyl)carbamoyl]ethyl}-3,3-dimethylbutanamide]
activation at 10 µM [3, 5]: ≥ 30%
inhibition at 10 µM [3, 6]: ≥ 30%
inhibition at 10 µM [3, 7]: ≥ 30%
activation at 10 µM [2]: ≥ 10%

CC(=O)OCC(C)(C)[C@@H](OC(C)=O)C(=O)NCCC(=O)NCCSC(C)=O [Compound 1264, (1R)-3-(acetyloxy)-1-[(2-[[2-(acetylsulfanyl)ethyl]carbamoyl]ethyl)carbamoyl]-2,2-dimethylpropyl acetate]
activation at 50 µM [1]: ≥ 20%
inhibition at 10 µM ([4]; 10 uM, read-out: % decrease in VEGFRII): ≥ 10%
activation at 10 µM [2]: ≥ 10%

CC(O)C(C(=O)SCCNC(=O)CCNC(=O)[C@H](O)C(C)(C)CO)C(C)O (stereo partly drawn) [Compound 1285, (2R)-2,4-dihydroxy-N-[2-[(2-[[3-hydroxy-2-(1-hydroxyethyl)butanoyl]sulfanyl]ethyl)carbamoyl]ethyl]-3,3-dimethylbutanamide]
activation at 10 µM [1]: ≥ 30%
activation at 10 µM [2]: ≥ 10%
